Here are results for 3 compounds from patent US8691726B2, “Synergistic combination of a glyphosate compound and ZPT” (Dow Global Technologies LLC, priority 2010, dated 2014).

Values after ≈ are worked out from the molar mass of the structure shown. Where two headings read alike, the source gives them in different places.

The term inhibition denotes the percentage by which the read-out fell short of the control. The EC50 is the midpoint of the concentration-response curve.

For series [1], the system named is Gloeocapsa sp. and Oscillatoria sp. The series is described as follows: Algal efficacy on dry paint film (Modified ASTM 5589), pool Gs + Os. It is filed as cell-based. To be noted: for % Inhibition, Os-Gl: at the total conc printed for the same blend; for % Inhibition Gs + Os: four weeks. On the procedure:
(§1) A single biocide or blend of biocides was post added into white acrylic latex paint free of biocides to give a maximum total active ingredient/s concentration tested. This paint was then diluted with a biocide free acrylic latex paint to give targeted concentrations for the testing. Depending on the type of biocide blends tested, the total biocides concentrations varies from 400 to 3300 ppm. After biocides addition or dilution, each sample was hand mixed for at least a minute until uniformity was achieved. Each of the paint samples as well as a control sample (containing no biocide) were used to prepare films on black plastic-vinyl chloride/acetate copolymer panels (Leneta Company, Mahwah, N.J.) using a 0.0762 mm (3 mil) bird bar applicator. The panels were thoroughly dried for at least 2 days avoiding direct exposure to sunlight. Square discs (0.5 inch^2; 1.27 cm^2) were cut out from each panel and were used as the substrate for fungal and algal efficacy tests. This sample size allowed for an agar border when the sample disc was placed into the well of the test plate. Each sample was tested in duplicate.
(§2) The appropriate media (BOLD'S 3N for Chlorophytes, BG-11 for Cyanobacteria, and PDA for fungi) were used to support microbial growth. The test plates were maintained at room temp (25° C.-26° C.), in a cycled light-dark environment, for four weeks for algae. Plates for fungal challenge tests were maintained at 30° C. for four weeks. At the end of the incubation period the samples were scored for percent area covered by visible microbial growth.
(§3) Algal efficacy was tested as follows (Modified ASTM 5589).
(§4) ASTM 5589 is a standard accelerated test method for determining resistance of various coatings (including paints) to algal defacement. To accommodate for high-throughput screening, this method was scaled down from petri plates to 6-well plates. A single coupon was placed with a pair of sterile forceps at the center of the agar plug (on top) with the painted surface facing upwards. Algal inoculums were prepared by mixing equal concentrations (approximately 1×10^6 cfu/ml) and equal volumes (depending on number of samples to be inoculated) of like growing organisms.
(§5) In this synergy study, three pool of mixed algae were prepared as the test inoculum, Gloeocapsa sp. and Oscillatoria sp. a mix of cyanobacteria grown on BG-11 media; Chlorella sp., Chlorella kessleri, and Nostoc commune are unicellular chlorphytes that were mixed and grown on Bold media; Trentepohlia aurea, Tretepohlia odorata, and Calotrix parientina are filamentous algae that were mixed and grown on Bold media.
(§6) Each well that contained a tested coupon was inoculated with 400 μl of organism mixture (approximately 1×10^6 cfu/ml) making sure that the whole surface (paint film as well as the agar surrounding it) was evenly covered. The plates were incubated at room temp (25° C.-26° C.) with cyclic exposure to light (OTT-Lite model # OTL4012P, 40 Watt, 26 KLumen) and dark phases, for a period of four weeks. The total area covered was evaluated at the end of each week according to percent area covered in 5% increments.
(§7) The SI is calculated based on F. C. Kull et.
(§8) SI value of <1 in the formula indicates a synergism of the blended biocides exists.
(§9) NE=no end point at the concentration tested that will meet the percent inhibition criteria set in each SI calculation.

Series [2] has as its system Trentepohlia aurea, Tretepohlia odorata, and Calotrix parientina. The series is described as follows: Algal efficacy on dry paint film (Modified ASTM 5589), pool Cp + To + Ta. Conditions: for % Inhibition, Cal-Tre: at the total conc printed for the same blend; for % Inhibition Cp + To + Ta: four weeks. It counts as cell-based. On the procedure:
as §1, §2, §3, §4, §5, §6, §7, §8, §9

Series [3] has as its system Chlorella sp., Chlorella kessleri, and Nostoc commune. The series is described as follows: Algal efficacy on dry paint film (Modified ASTM 5589), pool Cs + Ck + Nc. It is filed as cell-based. On the procedure: as §1, §2, §3, §4, §5, §6, §7, §8, §9
The subject of series [4] is Aspergillus niger was mixed with Penicillium funiculosum. In words: Fungal efficacy on dry paint film (Modified ASTM 5590), pool An + Pf. It counts as cell-based. To be noted: for % Inhibition, An-Pf: at the total conc printed for the same blend; for % Inhibition An + Pf: four weeks. As to the method:
as §1, §2
(§10) Fungal efficacy was tested as follows (Modified ASTM 5590).
ASTM 5590 is a standard accelerated test method for determining resistance of various coatings (including paints) to fungal defacement. To accommodate for high-throughput screening, this method was scaled down from petri plates to 6-well plates. To set up the test, an agar plug was placed at the bottom of each well of the sterile 6-well plate. A single coupon was placed with a pair of sterile forceps at the center of the agar plug (on top) with the painted surface facing upwards. Fungal inoculums were prepared by mixing equal concentrations (approximately 1×10^6 cfu/ml) and equal volumes (depending on number of samples to be tested) of like growing organisms. For this synergy study, three pools of mixed fungi were prepared as the test inoculum. Cladosporium herbarum was mixed with Trichoderma viride, Aspergillus niger was mixed with Penicillium funiculosum and Alternaria alternata was mixed with Aureobasidium pullulans. Each well was inoculated with 400 microliter of organism mixture (approximately 1×10^6 cfu/ml) making sure that the whole surface (paint film as well as the agar surrounding it) was evenly covered. The plates were incubated at 30° C. in presence of moisture, for a period of four weeks. The total percent area covered was evaluated and recorded at the end of each week and recorded in increments of 5%.
as §7, §8, §9

Series [5] has as its system diatom (Navicula pelliculosa). To be noted: 7 day; cited from earlier work.
In series [6] the test system is Alternaria alternata was mixed with Aureobasidium pullulans. In words: Fungal efficacy on dry paint film (Modified ASTM 5590), pool Aa + Ap. It is filed as cell-based. Conditions: 672 h, four weeks. As to the method: (§11) Each sample was tested in duplicate.
as §10

For series [7] the following is noted: cited from earlier work.
The test system of series [8] is marine algae (Skeletonema costatum). To be noted: cited from earlier work.
Series [9] concerns Cladosporium herbarum was mixed with Trichoderma viride. The series is described as follows: Fungal efficacy on dry paint film (Modified ASTM 5590), pool TV + Ch. It is filed as cell-based. Conditions: four weeks. On the procedure: as §11, §10
For series [10], the system named is various algae. Conditions: cited from earlier work.
Series [11] relates to blue-green algae (Anabaena flos-aquae). Conditions: 7 day; cited from earlier work.
Series [12] concerns green algae (Selenastrum capricornutum). Conditions: cited from earlier work; for EbC50: biomass.
Where [13] appears, read: 672 h, read-out: % Inhibition Gs + Os.
Setting [14] is: Trentepohlia aurea, 672 h, read-out: % Inhibition Cp + To + Ta.
Where [15] appears, read: Nostoc commune, 672 h, read-out: % Inhibition Cs + Ck + Nc.
The mark [16] stands for this setting: 672 h, read-out: % Inhibition An + Pf.

On to zinc pyrithione [ZPT], for which the “% Inhibition, Os-Gl” value in [1] (Os-Gl) worked out at 100%. The “Total conc (minimum inhibitory concentration chosen for SI), Os-Gl” value in series [1] (total active in paint, Os-Gl) was 3300 pppm. Also, the “% Inhibition, Cal-Tre” value in series [2] (Cal-Tre) is on record as 40%. Moreover, the “Total conc (minimum inhibitory concentration chosen for SI), Cal-Tre” value in series [2] (total active in paint, Cal-Tre) worked out at 3300 pppm. The “% Inhibition, Ch-No” value in [3] (at the total conc printed for the same blend, Ch-No) came to 80%. The “Total conc (minimum inhibitory concentration chosen for SI), Ch-No” value in [3] (total active in paint, Ch-No) amounted to 412.5 pppm. Moreover, the “% Inhibition, An-Pf” value in [4] (An-Pf) came to 0%. Moreover, in [4] (total active in paint, An-Pf), the “Total conc (minimum inhibitory concentration chosen for SI), An-Pf” value turned out to be 3300 pppm.

Turning to `O=C(O)CNCP(=O)(O)O` [glyphosate, N-(phosphonomethyl)glycine], the inhibition at 750 ppm in series [1] (setting [13]) was determined as 15%; in series [6] (750 ppm in paint), 7.5%; in series [2] (setting [14]) it was 0%; in [9] (672 h, 750 ppm in paint), 2.5%; in series [3] (setting [15]) it was 37.5%; in series [4] (setting [16]) it was 0%. The inhibition at 1500 ppm in series [1] (setting [13]) is 72.5%; in series [6] (1500 ppm in paint), 20%; in [2] (setting [14]), 10%; in series [9] (672 h, 1500 ppm in paint), 50%; in series [3] (setting [15]), 60%; in series [4] (setting [16]), 5%. For the same compound, the inhibition at 2500 ppm stood at 90% in [1] (setting [13]); 67.5% in series [6] (2500 ppm in paint); 7.5% in [2] (setting [14]); 72.5% in series [9] (672 h, 2500 ppm in paint); 80% in [3] (setting [15]); 10% in series [4] (setting [16]). Also, the EC50 in series [5] is 42 µg/mL (≈ 248 µM); in series [8] (96 hr), 1.3 µg/mL (≈ 7.69 µM); in series [8] (7 day) it was 0.64 µg/mL (≈ 3.79 µM); in series [11], 15 µg/mL (≈ 88.7 µM). Moreover, the solubility in water result in [7] is recorded as “relatively high”. Further, in series [10], the “activity against various algae” value was “relatively low”. Also, the EbC50 in [12] (72 hr) is 485 mg/L; in series [12] (7 day), 13.8 mg/L. Further, in series [12] (72 hr, growth rate), the ErC50 was 460 mg/L.

For zinc glyphosate, the entries for the “% Inhibition Gs + Os” value in series [1] (750 ppm in paint), in series [1] (1500 ppm in paint) and in series [1] (2500 ppm in paint) were 15%, 72.5% and 90%, respectively. Moreover, the “% Inhibition, Os-Gl” value in series [1] (Os-Gl) is on record as 100%. The “% Inhibition Cp + To + Ta” value in series [2] (750 ppm in paint), in series [2] (1500 ppm in paint) and in series [2] (2500 ppm in paint) was 0% in each case. Besides, in [2] (Cal-Tre), the “% Inhibition, Cal-Tre” value worked out at 100%. The “% Inhibition TV + Ch” value came to 50% in series [9] (750 ppm in paint), 75% in series [9] (1500 ppm in paint) and 90% in series [9] (2500 ppm in paint). The “% Inhibition An + Pf” value amounted to 20% in series [4] (750 ppm in paint), 27.5% in series [4] (1500 ppm in paint) and 30% in series [4] (2500 ppm in paint). The “% Inhibition, An-Pf” value in series [4] (An-Pf) turned out to be 100%.
